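Method: 48-hour compound exposure of cells in 96-well plates, five concentrations, linear interpolation of endpoints. TGI denotes the concentration required for complete inhibition of growth.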
Tests used:
Assay in all cases: NCI tumour cell line growth inhibition, 48 h
CCRF-CEM leukemia = tested on: CCRF-CEM leukemia
HCC-2998 colon = tested on: HCC-2998 colon
HL-60(TB) leukemia = tested on: HL-60(TB) leukemia
HOP-62 NSCLC = tested on: HOP-62 NSCLC
HOP-92 NSCLC = tested on: HOP-92 NSCLC
IGROV1 ovarian = tested on: IGROV1 ovarian
KM12 colon = tested on: KM12 colon
KM20L2 colon = tested on: KM20L2 colon
LOX IMVI melanoma = tested on: LOX IMVI melanoma
MCF7 breast = tested on: MCF7 breast
MOLT-4 leukemia = tested on: MOLT-4 leukemia
NCI-H460 lung = tested on: NCI-H460 lung
OVCAR-8 ovarian = tested on: OVCAR-8 ovarian
RPMI-8226 leukemia = tested on: RPMI-8226 leukemia
SN12C renal = tested on: SN12C renal
SW-620 colon = tested on: SW-620 colon
U251 CNS = tested on: U251 CNS
UACC-62 melanoma = tested on: UACC-62 melanoma
ACHN renal = tested on: ACHN renal
TK-10 renal = tested on: TK-10 renal

SMILES | TGI (CCRF-CEM leukemia) [µM] | TGI (HCC-2998 colon) [µM] | TGI (HL-60(TB) leukemia) [µM] | TGI (HOP-62 NSCLC) [µM] | TGI (HOP-92 NSCLC) [µM] | TGI (IGROV1 ovarian) [µM] | TGI (KM12 colon) [µM] | TGI (KM20L2 colon) [µM] | TGI (LOX IMVI melanoma) [µM] | TGI (MCF7 breast) [µM] | TGI (MOLT-4 leukemia) [µM] | TGI (NCI-H460 lung) [µM] | TGI (OVCAR-8 ovarian) [µM] | TGI (RPMI-8226 leukemia) [µM] | TGI (SN12C renal) [µM] | TGI (SW-620 colon) [µM] | TGI (U251 CNS) [µM] | TGI (UACC-62 melanoma) [µM] | TGI (ACHN renal) [µM] | TGI (TK-10 renal) [µM]
N/C(=N\N=C/c1c(O)cc(O)cc1O)NO | > 92.6 | > 100 | > 76.9 | > 100 | > 100 | > 100 | > 100 | > 100 | > 100 | > 100 | > 100 | > 100 | > 100 | > 100 | > 100 | > 100 | > 100 | > 100 |  | 
CN1Cc2ccccc2C2(COc3ccccc3C2=O)C1 (stereo unspecified) | > 100 | > 100 | > 100 | > 100 | 93.6 | > 100 |  | > 100 | > 100 |  | > 100 | > 100 | > 100 | > 100 | > 100 | > 100 | > 100 | > 100 | > 100 | > 100
Cc1cc(C)c(S(=O)(=O)N(CCCCCN)OCCCN)c(C)c1 | 45.6 | 20 |  | 32.3 | 31 | 30 | 34.8 |  | 36.8 | 33.5 | 33 | 31.2 | 34.1 | 30.6 | 33.3 | 36.3 | 35.4 | 33.4 | 33.6 | 30.8
CC(=O)c1c(-c2ccco2)c(C#N)c(=S)n(C2OC(CO)C(O)C(O)C2O)c1C (stereo unspecified) | > 100 |  | > 100 | > 100 |  | > 100 | > 100 |  | > 100 | > 100 | > 100 | > 100 | > 100 | > 100 | > 100 | > 100 | > 100 | > 100 | > 100 | > 100
CN1COCN=C1NC#N | > 100 | > 100 | > 100 | > 100 |  | > 100 | > 100 | > 100 | > 100 |  | > 100 | > 100 |  | > 100 | > 100 | > 100 |  | > 100 | > 100 | 

Reference: PubChem BioAssay (NCI)
